Data as given in ChEMBL document CHEMBL3991601, “The target landscape of clinical kinase drugs” (Science, 2017).
The source made the active and inactive calls.

Legend:
[1] = molecular target: T1, Thyroid hormone receptor-associated protein 3 (Homo sapiens, UniProt Q9Y2W1)
T1 sequence (Q9Y2W1 whole entry): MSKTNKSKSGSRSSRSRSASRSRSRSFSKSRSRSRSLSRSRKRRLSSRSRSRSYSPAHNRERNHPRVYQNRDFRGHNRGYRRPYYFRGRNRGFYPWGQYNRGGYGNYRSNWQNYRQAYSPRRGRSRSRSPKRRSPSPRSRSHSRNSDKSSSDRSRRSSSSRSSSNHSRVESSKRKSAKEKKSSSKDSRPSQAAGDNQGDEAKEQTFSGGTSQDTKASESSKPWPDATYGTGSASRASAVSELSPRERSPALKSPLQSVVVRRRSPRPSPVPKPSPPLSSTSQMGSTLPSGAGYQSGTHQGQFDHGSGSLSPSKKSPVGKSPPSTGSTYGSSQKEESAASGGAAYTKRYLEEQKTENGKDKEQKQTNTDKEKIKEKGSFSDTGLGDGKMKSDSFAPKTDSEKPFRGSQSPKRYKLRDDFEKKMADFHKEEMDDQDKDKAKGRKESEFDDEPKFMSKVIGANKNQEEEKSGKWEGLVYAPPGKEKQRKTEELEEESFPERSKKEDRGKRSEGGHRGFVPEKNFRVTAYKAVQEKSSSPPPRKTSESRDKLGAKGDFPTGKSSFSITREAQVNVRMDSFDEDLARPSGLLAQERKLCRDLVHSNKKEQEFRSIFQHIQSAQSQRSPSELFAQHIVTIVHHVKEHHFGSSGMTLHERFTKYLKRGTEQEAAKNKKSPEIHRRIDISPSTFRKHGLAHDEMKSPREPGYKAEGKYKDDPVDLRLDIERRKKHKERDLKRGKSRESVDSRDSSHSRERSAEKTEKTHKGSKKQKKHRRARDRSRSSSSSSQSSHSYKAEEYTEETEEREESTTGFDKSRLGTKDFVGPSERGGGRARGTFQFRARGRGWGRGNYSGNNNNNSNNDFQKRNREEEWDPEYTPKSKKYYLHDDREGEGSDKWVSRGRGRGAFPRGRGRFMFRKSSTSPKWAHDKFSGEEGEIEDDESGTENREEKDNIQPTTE

[2] = molecular target: T2, Dual specificity protein kinase TTK (Homo sapiens, UniProt P33981)
T2 sequence (P33981 whole entry): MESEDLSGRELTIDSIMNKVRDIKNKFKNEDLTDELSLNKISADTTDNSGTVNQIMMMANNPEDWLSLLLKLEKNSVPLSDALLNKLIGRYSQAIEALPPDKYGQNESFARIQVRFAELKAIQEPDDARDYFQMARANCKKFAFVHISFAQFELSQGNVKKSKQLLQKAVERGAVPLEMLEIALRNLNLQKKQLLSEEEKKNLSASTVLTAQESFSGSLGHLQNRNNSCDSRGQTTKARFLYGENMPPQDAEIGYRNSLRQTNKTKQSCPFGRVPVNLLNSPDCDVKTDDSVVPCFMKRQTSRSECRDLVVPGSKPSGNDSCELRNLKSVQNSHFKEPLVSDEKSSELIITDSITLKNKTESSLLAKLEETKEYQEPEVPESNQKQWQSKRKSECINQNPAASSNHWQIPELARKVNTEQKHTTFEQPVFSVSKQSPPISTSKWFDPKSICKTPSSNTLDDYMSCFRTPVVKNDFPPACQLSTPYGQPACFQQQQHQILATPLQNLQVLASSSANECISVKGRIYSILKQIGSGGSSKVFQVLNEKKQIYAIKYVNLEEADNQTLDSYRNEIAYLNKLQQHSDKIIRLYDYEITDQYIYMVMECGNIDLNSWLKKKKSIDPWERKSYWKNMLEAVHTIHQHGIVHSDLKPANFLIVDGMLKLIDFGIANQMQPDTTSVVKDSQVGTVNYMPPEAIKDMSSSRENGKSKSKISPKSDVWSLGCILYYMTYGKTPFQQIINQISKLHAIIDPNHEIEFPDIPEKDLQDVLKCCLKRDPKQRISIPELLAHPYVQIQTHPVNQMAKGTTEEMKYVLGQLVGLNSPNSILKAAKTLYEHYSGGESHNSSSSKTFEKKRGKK

[3] = molecular target: Epidermal growth factor receptor (Homo sapiens, UniProt P00533)
[4] = molecular target: Membrane-associated progesterone receptor component 1 (Homo sapiens, UniProt O00264)
Obg-like ATPase 1 = Obg-like ATPase 1 (Homo sapiens, UniProt Q9NTK5)
[5] = molecular target: Cyclin-dependent kinase 2 (Homo sapiens, UniProt P24941)
[6] = molecular target: Serine/threonine-protein kinase pim-2 (Homo sapiens, UniProt Q9P1W9)
[7] = molecular target: Cyclin-dependent kinase 17 (Homo sapiens, UniProt Q00537)
[8] = molecular target: Hepatocyte growth factor receptor (Homo sapiens, UniProt P08581)
[9] = molecular target: Serine/threonine-protein kinase 24 (Homo sapiens, UniProt Q9Y6E0)
[10] = molecular target: Dual specificity protein kinase CLK4 (Homo sapiens, UniProt Q9HAZ1)
[11] = molecular target: T3, Protein kinase C zeta type (Homo sapiens, UniProt Q05513)
T3 sequence (Q05513 whole entry): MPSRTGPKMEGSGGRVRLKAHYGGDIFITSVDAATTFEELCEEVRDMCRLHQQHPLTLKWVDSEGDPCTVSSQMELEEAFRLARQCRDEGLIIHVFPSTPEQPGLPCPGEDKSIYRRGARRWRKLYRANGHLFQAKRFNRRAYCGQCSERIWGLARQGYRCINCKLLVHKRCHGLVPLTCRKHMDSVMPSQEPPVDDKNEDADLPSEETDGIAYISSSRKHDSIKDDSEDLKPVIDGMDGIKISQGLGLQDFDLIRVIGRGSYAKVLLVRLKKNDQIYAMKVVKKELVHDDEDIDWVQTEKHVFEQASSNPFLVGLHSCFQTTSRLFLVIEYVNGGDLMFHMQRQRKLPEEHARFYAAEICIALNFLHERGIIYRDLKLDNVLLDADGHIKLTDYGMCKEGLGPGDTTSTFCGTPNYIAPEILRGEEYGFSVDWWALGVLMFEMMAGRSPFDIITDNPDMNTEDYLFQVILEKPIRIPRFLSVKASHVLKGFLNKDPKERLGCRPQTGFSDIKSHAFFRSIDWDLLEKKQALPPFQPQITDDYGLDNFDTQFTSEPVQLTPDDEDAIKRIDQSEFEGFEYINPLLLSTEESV

[12] = molecular target: Serine/threonine-protein kinase ATR (Homo sapiens, UniProt Q13535)
[13] = molecular target: Serine/threonine-protein kinase PLK1 (Homo sapiens, UniProt P53350)
Further: in the data inactive means no Kd found up to 30 µM.

Sequence of Serine/threonine-protein kinase 24 (Q9Y6E0 whole entry): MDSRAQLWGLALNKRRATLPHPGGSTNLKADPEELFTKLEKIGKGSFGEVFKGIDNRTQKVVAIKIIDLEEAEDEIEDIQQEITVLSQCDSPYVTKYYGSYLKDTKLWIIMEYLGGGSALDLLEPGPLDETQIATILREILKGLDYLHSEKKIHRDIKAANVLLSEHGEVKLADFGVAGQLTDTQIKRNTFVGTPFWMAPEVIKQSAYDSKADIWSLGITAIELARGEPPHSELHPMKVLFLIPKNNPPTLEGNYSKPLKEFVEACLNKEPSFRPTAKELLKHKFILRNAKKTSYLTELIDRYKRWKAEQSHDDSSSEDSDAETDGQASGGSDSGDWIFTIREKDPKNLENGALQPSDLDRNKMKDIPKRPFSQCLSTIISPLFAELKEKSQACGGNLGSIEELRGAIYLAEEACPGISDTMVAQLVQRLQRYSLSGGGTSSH
Sequence of Serine/threonine-protein kinase ATR (Q13535 whole entry): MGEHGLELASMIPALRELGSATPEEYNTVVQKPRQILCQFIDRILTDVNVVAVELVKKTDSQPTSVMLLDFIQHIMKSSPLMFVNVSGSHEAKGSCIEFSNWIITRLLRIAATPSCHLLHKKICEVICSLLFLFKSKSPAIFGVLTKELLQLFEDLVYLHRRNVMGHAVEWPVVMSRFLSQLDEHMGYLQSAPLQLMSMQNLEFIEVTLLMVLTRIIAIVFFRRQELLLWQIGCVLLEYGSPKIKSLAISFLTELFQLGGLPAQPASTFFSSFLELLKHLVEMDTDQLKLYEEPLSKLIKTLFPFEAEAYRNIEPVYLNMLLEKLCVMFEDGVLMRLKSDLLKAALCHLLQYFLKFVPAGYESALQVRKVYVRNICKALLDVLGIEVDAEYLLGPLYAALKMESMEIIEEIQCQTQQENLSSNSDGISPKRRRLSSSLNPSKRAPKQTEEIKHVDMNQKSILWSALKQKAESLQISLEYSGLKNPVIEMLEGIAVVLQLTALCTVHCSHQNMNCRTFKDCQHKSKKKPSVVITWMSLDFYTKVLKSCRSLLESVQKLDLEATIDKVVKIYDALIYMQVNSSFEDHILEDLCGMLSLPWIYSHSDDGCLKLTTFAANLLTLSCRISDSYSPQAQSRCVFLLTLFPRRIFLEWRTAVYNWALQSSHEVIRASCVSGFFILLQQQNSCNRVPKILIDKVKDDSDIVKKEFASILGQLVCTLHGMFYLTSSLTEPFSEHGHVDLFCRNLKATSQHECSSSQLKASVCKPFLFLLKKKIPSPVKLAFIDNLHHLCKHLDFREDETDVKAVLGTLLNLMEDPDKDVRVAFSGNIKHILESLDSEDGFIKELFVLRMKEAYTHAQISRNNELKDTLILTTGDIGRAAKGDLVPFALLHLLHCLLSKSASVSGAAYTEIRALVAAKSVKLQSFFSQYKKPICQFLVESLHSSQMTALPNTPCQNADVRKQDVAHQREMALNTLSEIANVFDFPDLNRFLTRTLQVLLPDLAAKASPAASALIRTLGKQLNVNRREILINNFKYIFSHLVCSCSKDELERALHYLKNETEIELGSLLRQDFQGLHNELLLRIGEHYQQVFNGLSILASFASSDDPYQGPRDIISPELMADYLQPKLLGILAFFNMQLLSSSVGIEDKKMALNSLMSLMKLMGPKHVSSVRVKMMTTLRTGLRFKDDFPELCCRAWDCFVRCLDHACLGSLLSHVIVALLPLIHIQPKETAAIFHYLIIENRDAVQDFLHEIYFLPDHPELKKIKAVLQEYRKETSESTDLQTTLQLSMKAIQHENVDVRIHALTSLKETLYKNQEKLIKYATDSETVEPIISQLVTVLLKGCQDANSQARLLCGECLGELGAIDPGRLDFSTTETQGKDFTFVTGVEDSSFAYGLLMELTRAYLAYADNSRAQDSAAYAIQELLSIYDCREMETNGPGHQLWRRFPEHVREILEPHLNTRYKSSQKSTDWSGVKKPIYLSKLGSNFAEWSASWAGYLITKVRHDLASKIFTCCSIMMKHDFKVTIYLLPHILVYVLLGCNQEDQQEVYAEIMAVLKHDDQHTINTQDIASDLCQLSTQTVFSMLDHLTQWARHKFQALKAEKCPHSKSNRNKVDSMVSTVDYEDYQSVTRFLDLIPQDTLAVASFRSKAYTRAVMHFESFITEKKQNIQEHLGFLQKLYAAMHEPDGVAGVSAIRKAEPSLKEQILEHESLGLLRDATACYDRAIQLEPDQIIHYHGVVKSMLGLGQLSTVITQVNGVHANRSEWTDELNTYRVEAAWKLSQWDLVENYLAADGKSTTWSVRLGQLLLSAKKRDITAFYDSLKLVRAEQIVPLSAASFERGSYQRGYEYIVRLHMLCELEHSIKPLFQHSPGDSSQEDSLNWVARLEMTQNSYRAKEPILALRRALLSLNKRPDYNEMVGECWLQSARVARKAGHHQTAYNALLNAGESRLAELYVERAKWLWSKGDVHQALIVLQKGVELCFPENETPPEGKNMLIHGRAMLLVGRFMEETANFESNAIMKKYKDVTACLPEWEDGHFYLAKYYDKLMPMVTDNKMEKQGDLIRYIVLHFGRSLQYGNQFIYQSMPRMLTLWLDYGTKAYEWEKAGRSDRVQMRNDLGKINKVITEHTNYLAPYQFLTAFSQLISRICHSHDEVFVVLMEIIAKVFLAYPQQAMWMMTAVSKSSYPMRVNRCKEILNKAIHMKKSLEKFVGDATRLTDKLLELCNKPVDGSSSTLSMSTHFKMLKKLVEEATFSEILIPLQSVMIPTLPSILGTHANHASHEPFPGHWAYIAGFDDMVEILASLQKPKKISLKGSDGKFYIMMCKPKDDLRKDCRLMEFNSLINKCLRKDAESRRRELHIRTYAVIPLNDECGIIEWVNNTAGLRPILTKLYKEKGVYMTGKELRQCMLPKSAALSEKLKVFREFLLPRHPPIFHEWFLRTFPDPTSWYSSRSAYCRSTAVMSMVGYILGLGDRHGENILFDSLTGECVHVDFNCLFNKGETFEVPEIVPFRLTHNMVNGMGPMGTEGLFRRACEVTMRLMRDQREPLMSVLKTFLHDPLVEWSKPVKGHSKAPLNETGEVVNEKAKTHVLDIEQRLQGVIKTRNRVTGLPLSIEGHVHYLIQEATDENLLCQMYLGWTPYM
Sequence of Cyclin-dependent kinase 17 (Q00537 whole entry): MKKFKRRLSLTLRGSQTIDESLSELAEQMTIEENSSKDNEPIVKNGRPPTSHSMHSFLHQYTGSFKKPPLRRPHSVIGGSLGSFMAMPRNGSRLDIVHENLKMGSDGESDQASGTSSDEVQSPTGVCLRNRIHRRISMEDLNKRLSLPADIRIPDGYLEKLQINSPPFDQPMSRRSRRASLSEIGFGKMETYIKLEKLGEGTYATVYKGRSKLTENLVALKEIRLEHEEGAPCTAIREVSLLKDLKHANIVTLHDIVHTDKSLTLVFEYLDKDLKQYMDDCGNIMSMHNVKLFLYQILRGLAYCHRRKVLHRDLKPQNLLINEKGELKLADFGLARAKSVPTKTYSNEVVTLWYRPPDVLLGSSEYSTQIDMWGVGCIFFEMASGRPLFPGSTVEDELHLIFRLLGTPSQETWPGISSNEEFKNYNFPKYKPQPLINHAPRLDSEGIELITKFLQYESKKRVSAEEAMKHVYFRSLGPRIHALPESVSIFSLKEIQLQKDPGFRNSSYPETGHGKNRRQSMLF
Sequence of Obg-like ATPase 1 (Q9NTK5 whole entry, looked up): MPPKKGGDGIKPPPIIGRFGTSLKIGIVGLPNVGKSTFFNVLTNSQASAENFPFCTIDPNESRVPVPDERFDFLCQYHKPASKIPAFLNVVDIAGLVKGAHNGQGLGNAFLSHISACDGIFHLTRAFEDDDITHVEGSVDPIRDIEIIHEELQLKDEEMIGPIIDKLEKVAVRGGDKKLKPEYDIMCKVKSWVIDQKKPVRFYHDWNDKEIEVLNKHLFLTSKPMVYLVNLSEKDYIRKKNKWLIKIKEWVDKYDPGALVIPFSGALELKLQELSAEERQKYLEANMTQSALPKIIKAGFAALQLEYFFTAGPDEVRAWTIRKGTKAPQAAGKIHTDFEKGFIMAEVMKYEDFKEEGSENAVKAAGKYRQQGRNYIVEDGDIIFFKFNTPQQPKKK
Sequence of Dual specificity protein kinase CLK4 (Q9HAZ1 whole entry): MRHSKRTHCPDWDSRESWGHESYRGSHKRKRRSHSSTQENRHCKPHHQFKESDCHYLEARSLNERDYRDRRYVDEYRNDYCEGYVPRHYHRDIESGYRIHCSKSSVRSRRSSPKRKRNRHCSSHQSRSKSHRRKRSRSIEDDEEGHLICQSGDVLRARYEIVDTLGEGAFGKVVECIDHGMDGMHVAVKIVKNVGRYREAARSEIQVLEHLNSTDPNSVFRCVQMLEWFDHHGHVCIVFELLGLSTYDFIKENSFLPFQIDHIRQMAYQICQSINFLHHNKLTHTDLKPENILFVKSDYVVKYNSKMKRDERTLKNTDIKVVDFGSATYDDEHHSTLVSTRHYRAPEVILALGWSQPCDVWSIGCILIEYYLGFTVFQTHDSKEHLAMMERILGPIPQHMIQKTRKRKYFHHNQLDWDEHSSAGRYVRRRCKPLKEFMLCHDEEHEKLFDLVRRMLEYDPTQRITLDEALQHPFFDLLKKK
Sequence of Membrane-associated progesterone receptor component 1 (O00264 whole entry): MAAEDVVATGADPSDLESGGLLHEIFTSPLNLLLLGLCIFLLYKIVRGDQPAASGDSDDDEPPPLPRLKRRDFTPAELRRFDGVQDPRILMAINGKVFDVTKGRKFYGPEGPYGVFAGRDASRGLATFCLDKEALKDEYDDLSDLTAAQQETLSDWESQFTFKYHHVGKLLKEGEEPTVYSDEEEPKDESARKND
Sequence of Serine/threonine-protein kinase pim-2 (Q9P1W9 whole entry): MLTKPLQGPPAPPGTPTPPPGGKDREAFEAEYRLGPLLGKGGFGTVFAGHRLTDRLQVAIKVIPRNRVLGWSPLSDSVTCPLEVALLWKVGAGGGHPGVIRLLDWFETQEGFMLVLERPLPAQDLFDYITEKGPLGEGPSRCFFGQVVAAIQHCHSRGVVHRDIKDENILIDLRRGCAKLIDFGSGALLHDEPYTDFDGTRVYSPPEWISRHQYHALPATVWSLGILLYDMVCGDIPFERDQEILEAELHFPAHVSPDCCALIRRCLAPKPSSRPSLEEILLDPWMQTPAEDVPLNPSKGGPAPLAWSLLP

Row | Kd [1] | Kd [2] | Kd [3] | Kd [4] | Kd (Obg-like ATPase 1) | Kd [5] | Kd [6] | Kd [7] | Kd [8] | Kd [9] | Kd [10] | Kd [11] | Kd [12] | Kd [13] | SMILES
1 | > 30 µM (inactive) | > 30 µM (inactive) | > 30 µM (inactive) | > 30 µM (inactive) | > 30 µM (inactive) | > 30 µM (inactive) | > 30 µM (inactive) | > 30 µM (inactive) | > 30 µM (inactive) | > 30 µM (inactive) | > 30 µM (inactive) |  |  |  | CNS(=O)(=O)Nc1nccc(Cc2c(C)c3ccc(Oc4ncccn4)cc3oc2=O)c1F [AVUTOMETINIB]
2 | > 30 µM (inactive) | > 30 µM (inactive) | > 30 µM (inactive) |  |  | > 30 µM (inactive) | > 30 µM (inactive) | > 30 µM (inactive) | > 30 µM (inactive) | > 30 µM (inactive) |  | > 30 µM (inactive) |  |  | Cc1cc2c(F)c(Oc3ncnn4cc(OC[C@@H](C)OC(=O)[C@H](C)N)c(C)c34)ccc2[nH]1 [BRIVANIB ALANINATE]
3 | > 30 µM (inactive) | > 30 µM (inactive) | 20.8 µM (active) |  |  | > 30 µM (inactive) | > 30 µM (inactive) | > 30 µM (inactive) | > 30 µM (inactive) | > 30 µM (inactive) | > 30 µM (inactive) |  | > 30 µM (inactive) |  | COc1cc(N2CCC(N3CCN(C)CC3)CC2)ccc1Nc1ncnc(Nc2ccccc2S(=O)(=O)C(C)C)n1 [ASP-3026]
4 |  | > 30 µM (inactive) | > 30 µM (inactive) | > 30 µM (inactive) | > 30 µM (inactive) |  | > 30 µM (inactive) |  | > 30 µM (inactive) | > 30 µM (inactive) | > 30 µM (inactive) |  | > 30 µM (inactive) |  | CN(C)C(=O)c1cc2cnc(Nc3ccc(N4CCNCC4)cn3)nc2n1C1CCCC1 [RIBOCICLIB]
5 |  | > 30 µM (inactive) |  | > 30 µM (inactive) |  | > 30 µM (inactive) | > 30 µM (inactive) | > 30 µM (inactive) | > 30 µM (inactive) | > 30 µM (inactive) | > 30 µM (inactive) | > 30 µM (inactive) |  |  | CNC(=O)CN1CCC(Oc2cc3c(Nc4cccc(Cl)c4F)ncnc3cc2OC)CC1 [SAPITINIB]
6 |  | > 30 µM (inactive) | > 30 µM (inactive) | > 30 µM (inactive) | > 30 µM (inactive) | > 30 µM (inactive) |  | > 30 µM (inactive) | > 30 µM (inactive) |  | > 30 µM (inactive) | > 30 µM (inactive) | > 30 µM (inactive) |  | C[C@@H]1CN(Cc2ccc(F)cc2)[C@@H](C)CN1C(=O)c1cc2c(C(=O)C(=O)N(C)C)cn(C)c2cc1Cl [TALMAPIMOD]
7 | > 30 µM (inactive) | > 30 µM (inactive) | > 30 µM (inactive) |  | > 30 µM (inactive) | > 30 µM (inactive) |  | > 30 µM (inactive) | > 30 µM (inactive) |  | > 30 µM (inactive) |  |  | > 30 µM (inactive) | CO[C@H]1C[C@@H]2CC[C@@H](C)[C@@](O)(O2)C(=O)C(=O)N2CCCC[C@H]2C(=O)O[C@H]([C@H](C)C[C@@H]2CC[C@@H](OCCO)[C@H](OC)C2)CC(=O)[C@H](C)/C=C(\C)[C@@H](O)[C@@H](OC)C(=O)[C@H](C)C[C@H](C)/C=C/C=C/C=C/1C [EVEROLIMUS]
8 | > 30 µM (inactive) | > 30 µM (inactive) | > 30 µM (inactive) | > 30 µM (inactive) | > 30 µM (inactive) | > 30 µM (inactive) | > 30 µM (inactive) | > 30 µM (inactive) | > 30 µM (inactive) | > 30 µM (inactive) | > 30 µM (inactive) | > 30 µM (inactive) | > 30 µM (inactive) |  | COc1ccc(-c2ccc3c(N4CCOC[C@@H]4C)nc(N4CCOC[C@@H]4C)nc3n2)cc1CO [AZD-8055]

Row | SMILES | Kd [1] | Kd [2] | Kd [3] | Kd [4] | Kd (Obg-like ATPase 1) | Kd [5] | Kd [6] | Kd [7] | Kd [8] | Kd [9] | Kd [10] | Kd [11] | Kd [12] | Kd [13]
9 | COC(=O)[C@@]1(O)C[C@H]2O[C@]1(C)n1c3ccccc3c3c4c(c5c6ccccc6n2c5c31)C(=O)NC4 [K-252A] | > 30 µM (inactive) | 0.03 µM | > 30 µM (inactive) | > 30 µM (inactive) |  |  | > 30 µM (inactive) | > 30 µM (inactive) | > 30 µM (inactive) | > 30 µM (inactive) | 0.015 µM (active) |  |  | 
